How the values were obtained:
Type in all cases: biochemical
Conditions in all cases: 1 μM inhibitor concentration
PRK2 = PRK2 (Homo sapiens (Human), UniProt Q16513); test: PRK2 kinase selectivity assay
Protocol: 5-20 mU of PRK2 (diluted in 50 mM Tris (pH 7.5), 0.1 mM EGTA, 1 mg/ml BSA, 0.1%, b-Mercaptoethanol) is assayed against Long S6 peptide ([…]) in a final volume of 25.5 μl containing 50 mM Tris (pH 7.5), 0.1 mM EGTA, 0.1%, b-Mercaptoethanol, 30 μM Long S6 peptide, 10 mM magnesium acetate and 0.005 mM [33P-g-ATP](500-1000 cpm/pmole) and incubated for 30 mins at room temperature. Assays are stopped by addition of 5 μl of 0.5M (3%) orthophosphoric acid. Assays are harvested onto P81 Unifilter plates using a wash buffer of 50 mM orthophosphoric acid.

PKD1 = PKD1 (Homo sapiens (Human), UniProt Q15139); test: PKD1 kinase selectivity assay
PKD1, sequence (Q15139 whole entry): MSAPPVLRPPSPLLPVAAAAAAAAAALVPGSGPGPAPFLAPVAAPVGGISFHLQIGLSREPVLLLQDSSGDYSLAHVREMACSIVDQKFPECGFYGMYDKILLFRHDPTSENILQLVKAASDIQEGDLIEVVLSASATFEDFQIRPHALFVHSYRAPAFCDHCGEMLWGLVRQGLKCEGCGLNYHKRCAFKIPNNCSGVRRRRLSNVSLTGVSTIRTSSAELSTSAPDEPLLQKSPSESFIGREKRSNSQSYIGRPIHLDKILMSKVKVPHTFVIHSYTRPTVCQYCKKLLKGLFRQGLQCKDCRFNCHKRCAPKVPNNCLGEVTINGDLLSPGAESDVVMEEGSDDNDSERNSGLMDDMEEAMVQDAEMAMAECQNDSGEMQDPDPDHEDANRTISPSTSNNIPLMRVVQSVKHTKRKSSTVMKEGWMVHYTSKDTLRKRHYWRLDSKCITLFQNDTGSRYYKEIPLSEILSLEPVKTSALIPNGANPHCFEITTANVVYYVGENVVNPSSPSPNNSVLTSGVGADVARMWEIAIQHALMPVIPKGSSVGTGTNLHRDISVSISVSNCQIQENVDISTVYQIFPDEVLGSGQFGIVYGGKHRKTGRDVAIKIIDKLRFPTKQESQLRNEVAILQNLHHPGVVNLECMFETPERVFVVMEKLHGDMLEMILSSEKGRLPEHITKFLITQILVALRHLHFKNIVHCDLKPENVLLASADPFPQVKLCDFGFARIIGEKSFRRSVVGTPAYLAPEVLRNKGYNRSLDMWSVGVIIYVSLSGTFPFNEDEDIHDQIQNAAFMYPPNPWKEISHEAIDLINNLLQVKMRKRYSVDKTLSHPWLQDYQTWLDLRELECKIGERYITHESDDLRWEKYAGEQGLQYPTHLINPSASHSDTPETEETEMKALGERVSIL
Protocol: (§1) PKD1 (5-20 mU diluted in 50 mM Tris pH 7.5, 0.1 mM EGTA, 0.1% b-mercaptoethanol, 1 mg/ml BSA) is assayed substrate peptide ([…]) in a final volume of 25.5 μl containing 50 mM Tris pH 7.5, 0.05% b-mercaptoethanol, 30 μM substrate peptide, 10 mM magnesium acetate and 0.05 mM [33P-g-ATP] (50-1000 cpm/pmole) and incubated for 30 min at room temperature. Assays are stopped by addition of 5 μl of 0.5 M (3%) orthophosphoric acid and then harvested onto P81 Unifilter plates with a wash buffer of 50 mM orthophosphoric acid.

PRAK = PRAK (Homo sapiens (Human), UniProt Q8IW41); test: PRAK kinase selectivity assay
PRAK, sequence (Q8IW41 whole entry, species assumed): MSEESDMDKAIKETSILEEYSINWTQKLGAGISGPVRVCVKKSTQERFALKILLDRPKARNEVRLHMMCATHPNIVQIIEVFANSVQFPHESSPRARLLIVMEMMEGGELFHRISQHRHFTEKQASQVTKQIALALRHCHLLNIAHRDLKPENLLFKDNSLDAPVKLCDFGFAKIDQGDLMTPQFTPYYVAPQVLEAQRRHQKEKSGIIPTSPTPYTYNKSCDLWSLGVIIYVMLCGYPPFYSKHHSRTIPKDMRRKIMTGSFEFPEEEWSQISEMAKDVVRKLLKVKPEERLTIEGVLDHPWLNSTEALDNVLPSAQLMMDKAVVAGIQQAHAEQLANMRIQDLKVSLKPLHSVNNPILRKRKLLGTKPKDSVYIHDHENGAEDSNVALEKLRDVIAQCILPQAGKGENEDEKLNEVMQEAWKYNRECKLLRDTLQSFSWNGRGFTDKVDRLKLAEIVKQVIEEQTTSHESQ
Protocol: PRAK (5-20 mU diluted in 50 mM Na-b-glycerophosphate pH 7.5, 0.1 mM EGTA, 0.1% b-mercaptoethanol, 1 mg/ml BSA) is assayed against […] in a final volume of 25.5 μl containing 50 mM Na-b-glycerophosphate pH 7.5, 0.1 mM EGTA, 30 μM substrate peptide, 10 mM magnesium acetate and 0.02 mM [33P-g-ATP] (50-1000 cpm/pmole) and incubated for 30 min at room temperature. Assays are stopped by addition of 5 μl of 0.5 M (3%) orthophosphoric acid and then harvested onto P81 Unifilter plates with a wash buffer of 50 mM orthophosphoric acid.

BRSK2 = BRSK2 (Homo sapiens (Human), UniProt Q8IWQ3); test: BRSK2 kinase selectivity assay
BRSK2, sequence (Q8IWQ3 whole entry, species assumed): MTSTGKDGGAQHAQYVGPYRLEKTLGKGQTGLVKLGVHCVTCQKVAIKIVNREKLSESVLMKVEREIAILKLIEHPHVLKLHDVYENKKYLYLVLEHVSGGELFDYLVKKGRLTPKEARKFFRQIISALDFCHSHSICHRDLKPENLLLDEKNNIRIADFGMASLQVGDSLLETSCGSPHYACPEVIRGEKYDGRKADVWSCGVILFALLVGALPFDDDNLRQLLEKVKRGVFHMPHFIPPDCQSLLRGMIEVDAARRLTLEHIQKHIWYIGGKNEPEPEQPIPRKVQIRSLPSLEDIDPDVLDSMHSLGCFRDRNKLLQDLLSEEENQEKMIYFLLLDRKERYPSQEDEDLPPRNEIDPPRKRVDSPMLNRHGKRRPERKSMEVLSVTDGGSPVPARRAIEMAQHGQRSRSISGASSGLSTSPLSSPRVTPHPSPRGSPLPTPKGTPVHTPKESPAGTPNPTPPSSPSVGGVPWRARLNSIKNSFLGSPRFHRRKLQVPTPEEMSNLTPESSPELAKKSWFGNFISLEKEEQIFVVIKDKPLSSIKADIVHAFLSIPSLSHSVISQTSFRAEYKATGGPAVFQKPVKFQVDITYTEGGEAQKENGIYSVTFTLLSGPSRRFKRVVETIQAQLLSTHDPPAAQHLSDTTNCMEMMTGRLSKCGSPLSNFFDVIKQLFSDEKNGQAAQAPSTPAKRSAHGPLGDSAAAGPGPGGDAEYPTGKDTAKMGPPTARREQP
Protocol: as §1, with “BRSK2 (5-20” for “PKD1 (5-20”, “assayed against a” for “assayed”, “b-mercaptoethanol, 300” for “b-mercaptoethanol, 30”

DYRK1A = DYRK1A (Homo sapiens (Human), UniProt Q13627); test: DYRK1A kinase selectivity assay
Protocol: DYRK 1A (5-20 mU of diluted in 50 mM Tris pH7.5, 0.1 mM EGTA) is assayed against Woodtide ([…]) in a final volume of 25.5 μl containing 50 mM Tris pH 7.5, 0.1 mM EGTA, 350 μM substrate peptide, 10 mM Magnesium acetate and 0.05 mM [33P-g-ATP](50-1000 cpm/pmole) and incubated for 30 min at room temperature. Assays are stopped by addition of 5 μl of 0.5 M (3%) orthophosphoric acid and then harvested onto P81 Unifilter plates with a wash buffer of 50 mM orthophosphoric acid.

PAK4 = PAK4 (Homo sapiens (Human), UniProt O96013); test: PAK4 kinase selectivity assay
PAK4, sequence (O96013 whole entry, species assumed): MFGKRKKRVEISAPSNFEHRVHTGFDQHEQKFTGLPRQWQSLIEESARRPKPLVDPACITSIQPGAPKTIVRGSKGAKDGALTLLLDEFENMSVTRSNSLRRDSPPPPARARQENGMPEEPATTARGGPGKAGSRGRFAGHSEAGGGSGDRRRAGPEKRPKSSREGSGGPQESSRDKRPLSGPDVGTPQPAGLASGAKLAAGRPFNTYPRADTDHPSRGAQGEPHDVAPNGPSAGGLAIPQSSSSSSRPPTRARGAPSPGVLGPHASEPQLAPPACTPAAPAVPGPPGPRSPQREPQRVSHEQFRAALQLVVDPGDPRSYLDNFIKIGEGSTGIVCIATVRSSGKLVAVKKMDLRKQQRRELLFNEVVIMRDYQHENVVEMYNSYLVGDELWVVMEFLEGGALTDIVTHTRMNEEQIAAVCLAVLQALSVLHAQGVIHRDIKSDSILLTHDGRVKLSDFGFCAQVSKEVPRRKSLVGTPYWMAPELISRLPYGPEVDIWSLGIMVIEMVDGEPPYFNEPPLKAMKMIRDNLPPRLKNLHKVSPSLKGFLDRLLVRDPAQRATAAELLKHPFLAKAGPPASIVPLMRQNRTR
Protocol: as §1, with “PAK4 (5-20” for “PKD1 (5-20”, “assayed against a” for “assayed”, “b-mercaptoethanol, 300” for “b-mercaptoethanol, 30”, “and 0.005” for “and 0.05”

Src = Src (Homo sapiens (Human), UniProt P12931); test: Src kinase selectivity assay
Src, sequence (P12931 whole entry, looked up, species assumed): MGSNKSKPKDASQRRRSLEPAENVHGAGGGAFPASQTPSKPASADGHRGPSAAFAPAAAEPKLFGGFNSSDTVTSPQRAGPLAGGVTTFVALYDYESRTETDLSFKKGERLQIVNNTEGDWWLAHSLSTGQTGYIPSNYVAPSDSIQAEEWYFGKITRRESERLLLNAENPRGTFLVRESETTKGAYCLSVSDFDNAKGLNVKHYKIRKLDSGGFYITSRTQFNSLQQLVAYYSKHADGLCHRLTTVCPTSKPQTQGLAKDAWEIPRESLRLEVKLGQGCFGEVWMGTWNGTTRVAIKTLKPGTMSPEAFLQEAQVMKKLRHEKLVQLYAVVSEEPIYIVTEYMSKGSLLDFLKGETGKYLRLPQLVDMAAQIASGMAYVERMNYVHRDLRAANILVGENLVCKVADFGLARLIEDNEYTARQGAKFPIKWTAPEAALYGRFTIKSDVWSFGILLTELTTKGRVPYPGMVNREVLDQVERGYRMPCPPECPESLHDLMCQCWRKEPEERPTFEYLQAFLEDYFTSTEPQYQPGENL
Protocol: as §1, with “Src (5-20” for “PKD1 (5-20”, “assayed against a” for “assayed”, “b-mercaptoethanol, 300” for “b-mercaptoethanol, 30”

CSK = CSK (Homo sapiens (Human), UniProt P41240); test: CSK kinase selectivity assay
CSK, sequence (P41240 whole entry, species assumed): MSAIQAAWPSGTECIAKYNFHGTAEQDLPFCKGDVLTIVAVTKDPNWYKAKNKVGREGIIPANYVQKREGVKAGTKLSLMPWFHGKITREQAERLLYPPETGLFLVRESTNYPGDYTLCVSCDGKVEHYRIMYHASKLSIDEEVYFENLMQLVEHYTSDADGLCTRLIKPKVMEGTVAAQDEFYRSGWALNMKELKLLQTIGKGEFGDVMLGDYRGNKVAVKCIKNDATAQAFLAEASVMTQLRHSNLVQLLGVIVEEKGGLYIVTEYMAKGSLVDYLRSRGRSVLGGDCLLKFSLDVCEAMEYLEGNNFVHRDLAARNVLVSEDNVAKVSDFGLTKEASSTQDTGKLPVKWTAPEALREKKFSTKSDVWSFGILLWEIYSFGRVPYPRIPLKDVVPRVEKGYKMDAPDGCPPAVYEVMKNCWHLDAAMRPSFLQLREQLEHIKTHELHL
Protocol: CSK (5-20 mU diluted in 20 mM MOPS pH7.5, 1 mM EDTA, 0.01% Brij35, 5% glycerol, 0.1% b-mercaptoethanol, 1 mg/ml BSA) is assayed against Cdc2 peptide ([…]) in a final volume of 25.5 μl containing 8 mM MOPS pH7.0, 0.2 mM EDTA, Cdc2 peptide (0.25 mM), 10 mM magnesium acetate and 0.02 mM [33P-g-ATP](500-1000 cpm/pmole) and incubated for 30 min at room temperature Assays are stopped by addition of 5 μl of 0.5 M (3%) orthophosphoric acid and then harvested onto P81 Unifilter plates with a wash buffer of 50 mM orthophosphoric acid.

IR = IR (Homo sapiens (Human), UniProt P06213); test: IR kinase selectivity assay
Protocol: as §1, with “IR-HIS” for “PKD1”, “EGTA,” for “EGTA, 0.1% b-mercaptoethanol,”, “assayed against a” for “assayed”, “300 µM” for “0.05% b-mercaptoethanol, 30 μM”, “0.02” for “0.05”

PRK2, sequence (Q16513 whole entry, species assumed): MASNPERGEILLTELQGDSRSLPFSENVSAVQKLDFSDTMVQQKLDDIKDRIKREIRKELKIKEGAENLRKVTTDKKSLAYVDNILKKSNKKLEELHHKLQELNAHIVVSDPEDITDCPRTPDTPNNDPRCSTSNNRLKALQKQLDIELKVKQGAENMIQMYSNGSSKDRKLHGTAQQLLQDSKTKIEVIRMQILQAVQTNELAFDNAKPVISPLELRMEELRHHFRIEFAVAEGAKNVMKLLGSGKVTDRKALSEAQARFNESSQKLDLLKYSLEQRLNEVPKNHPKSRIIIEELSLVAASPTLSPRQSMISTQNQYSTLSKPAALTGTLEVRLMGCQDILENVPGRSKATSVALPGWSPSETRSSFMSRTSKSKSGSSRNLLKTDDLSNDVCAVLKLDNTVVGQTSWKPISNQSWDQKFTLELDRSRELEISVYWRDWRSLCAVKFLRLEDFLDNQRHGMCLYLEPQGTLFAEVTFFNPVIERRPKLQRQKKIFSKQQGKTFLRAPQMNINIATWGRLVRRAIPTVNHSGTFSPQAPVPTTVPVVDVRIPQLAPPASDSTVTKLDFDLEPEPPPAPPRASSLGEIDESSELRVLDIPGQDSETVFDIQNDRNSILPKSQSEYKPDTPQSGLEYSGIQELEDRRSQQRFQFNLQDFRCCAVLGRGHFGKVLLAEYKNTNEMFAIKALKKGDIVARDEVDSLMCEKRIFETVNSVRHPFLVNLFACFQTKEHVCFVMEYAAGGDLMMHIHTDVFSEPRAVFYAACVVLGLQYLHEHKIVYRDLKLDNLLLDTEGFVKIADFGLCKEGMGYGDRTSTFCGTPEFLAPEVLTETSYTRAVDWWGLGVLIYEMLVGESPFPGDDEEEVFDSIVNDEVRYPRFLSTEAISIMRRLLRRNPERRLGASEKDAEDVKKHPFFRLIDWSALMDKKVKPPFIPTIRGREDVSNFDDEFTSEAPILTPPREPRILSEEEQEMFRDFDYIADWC

Structure (SMILES) | percentage inhibition of PRK2 (PRK2) | percentage inhibition of PKD1 (PKD1) | percentage inhibition of PRAK (PRAK) | percentage inhibition of BRSK2 (BRSK2) | percentage inhibition of DYRK1A (DYRK1A) | percentage inhibition of PAK4 (PAK4) | percentage inhibition of Src (Src) | percentage inhibition of CSK (CSK) | percentage inhibition of IR (IR)
c1cc2[nH]nc3c2c(n1)N(C1CCC1)CCC3 [Example 22, 6-cyclobutyl-6,7,8,9-tetrahydro-2H-1,2,5,6-tetraazabenzo[cd]azulene] | 2 percentage | 20 percentage | 0 percentage | 0 percentage | 16 percentage | 6 percentage | 13 percentage | 1 percentage | 27 percentage
c1cc2[nH]nc3c2c(n1)N(C1CCCC1)CCC3 [Example 23, 6-cyclopentyl-6,7,8,9-tetrahydro-2H-1,2,5,6-tetraazabenzo[cd]azulene] | 0 percentage | 9 percentage | 0 percentage | 0 percentage | 0 percentage | 0 percentage | 0 percentage | 0 percentage | 1 percentage
c1cc2[nH]nc3c2c(n1)N(C1CCOCC1)CCC3 [Example 29, 6-(tetrahydro-2H-pyran-4-yl)-6,7,8,9-tetrahydro-2H-1,2,5,6-tetraazabenzo[cd]azulene] | 0 percentage | 3 percentage | 0 percentage | 2 percentage | 4 percentage | 7 percentage | 0 percentage | 0 percentage | 2 percentage
CN1CCC(N2Cc3ccccc3-c3n[nH]c4ccnc2c34)CC1 [Example 55] | 0 percentage | 73 percentage | 18 percentage | 50 percentage | 8 percentage | 20 percentage | 1 percentage | 0 percentage | 5 percentage
CC(C)n1ncc2c1CN(C1CCN(C)CC1)c1nccc3[nH]nc-2c13 [Example 68] | 8 percentage | 46 percentage | 13 percentage | 31 percentage | 0 percentage | 25 percentage | 0 percentage | 0 percentage | 0 percentage

Source: patent US10918645B2 (LIFEARC, priority 2016, dated 2021)
